The values below come from ChEMBL document CHEMBL3352180, “From chemical tools to clinical medicines: nonimmunosuppressive cyclophilin inhibitors derived from the cyclosporin and sanglifehrin scaffolds” (J Med Chem, 2014).

Each structure is given as a SMILES string. Bounds are passed on as bounds.

As a reminder, the Kd is the free concentration of one partner at which half of the binding sites on the other are occupied at equilibrium, for simple one-to-one binding. High values mean a looser complex, low ones a tighter complex. By EC50 is commonly meant the concentration at which the effect is half-maximal. High values mean lower potency in that assay, low ones higher potency in that assay. By inhibition is commonly meant the relative decrease from the control value, in per cent.

The species named for experiment [1] is Homo sapiens. As to the kind of experiment: Inhibition of Pgp (unknown origin) assessed as reduction in pump efflux activity.
For experiment [2], the target named is Peptidyl-prolyl cis-trans isomerase F, mitochondrial (Homo sapiens, UniProt P30405).
Description: Binding affinity to cyclophilin D (unknown origin)
Experiment [3] deals with Peptidyl-prolyl cis-trans isomerase A (Homo sapiens, UniProt P62937).
Description: Binding affinity to cyclophilin A (unknown origin)
Experiment [4] relates to Hepatitis C virus. As to the kind of experiment: microbe, parasite or virus in culture.
Description: Antiviral activity against HCV by replicon based assay
The test system of experiment [5] is Hepatitis C virus. As to the kind of experiment: Antiviral activity against HCV assessed as inhibition of viral replication at 1 uM by replicon based assay. The experiment is classed as functional, Hepacivirus hominis.
Experiment [6] relates to Lymphocyte. The experiment is described as follows: cells.
Description: Immunosuppressive activity in lymphocytes (unknown origin) by mixed lymphocyte reaction assay

Peptidyl-prolyl cis-trans isomerase A, sequence (P62937 whole entry): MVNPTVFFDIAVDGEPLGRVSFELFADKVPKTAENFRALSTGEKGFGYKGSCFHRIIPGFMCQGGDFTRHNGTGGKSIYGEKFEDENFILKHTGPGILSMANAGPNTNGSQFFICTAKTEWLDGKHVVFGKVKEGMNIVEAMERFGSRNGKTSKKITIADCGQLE
Peptidyl-prolyl cis-trans isomerase F, mitochondrial, sequence (P30405 whole entry): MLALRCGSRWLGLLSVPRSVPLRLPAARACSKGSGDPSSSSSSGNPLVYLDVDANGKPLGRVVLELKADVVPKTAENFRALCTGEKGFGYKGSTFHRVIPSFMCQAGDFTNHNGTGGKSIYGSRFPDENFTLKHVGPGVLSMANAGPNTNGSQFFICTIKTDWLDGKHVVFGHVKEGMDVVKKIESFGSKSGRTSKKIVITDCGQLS

For the molecule `C/C=C/C[C@@H](C)[C@@H](O)[C@H]1C(=O)N[C@@H](CC)C(=O)N(C)[C@H](SCCN(C)C)C(=O)N(C)[C@@H](CC(C)(C)O)C(=O)N[C@@H](C(C)C)C(=O)N(C)[C@@H](CC(C)C)C(=O)N[C@@H](C)C(=O)N[C@H](C)C(=O)N(C)[C@@H](CC(C)C)C(=O)N(C)[C@@H](CC(C)C)C(=O)N(C)[C@@H](C(C)C)C(=O)N1C`, the INH in experiment [1] came to 15 µM. Turning to `C/C=C/C[C@@H](C)[C@@H](O)[C@H]1C(=O)N[C@@H](CC)C(=O)N(C)[C@@H](C)C(=O)N(C)[C@@H](CC(C)C)C(=O)N(CC=C(C)C)[C@@H](C(C)C)C(=O)N(C)[C@@H](CC(C)C)C(=O)N[C@@H](C)C(=O)N[C@H](C)C(=O)N(C)[C@@H](CC(C)C)C(=O)N(C)[C@@H](CC(C)C)C(=O)N(C)[C@@H](C(C)C)C(=O)N1C`, the Kd in experiment [2] and in experiment [3] was < 60 nM each time. Also, the EC50 in experiment [4] was < 200 nM. On to `CC(C)[C@@H]1OC(=O)[C@]2(/C=C/c3ccc4ccc(nc4c3)[C@@H](C)OC(=O)[C@@H]3CCCN(N3)C(=O)[C@H](C)NC1=O)CC[C@H](O)CC2`, for which the inhibition at 1 µM in experiment [5] stood at 99%.

`CC(C)[C@@H]1NC(=O)C([C@H](C)O)/C=C/c2ccc3ccc(nc3c2)[C@@H](C)OC(=O)[C@@H]2CCCN(N2)C(=O)[C@H](C)NC1=O` (some centres not stated): the inhibition at 1 µM in experiment [5] was determined as 99%. In turn, `C/C=C/C[C@@H](C)[C@@H](O)[C@H]1C(=O)N[C@@H](CC)C(=O)N(C)[C@@H](SCCCN2CCOCC2)C(=O)N(C)[C@@H](CC(C)C)C(=O)N[C@@H](C(C)C)C(=O)N(C)[C@@H](CC(C)C)C(=O)N[C@@H](C)C(=O)N[C@H](C)C(=O)N(C)[C@@H](CC(C)C)C(=O)N(C)[C@@H](CC(C)C)C(=O)N(C)[C@@H](C(C)C)C(=O)N1C` yielded an EC50 in experiment [6] of 3000 nM.
